Experimental data from PMC6001375, “CLERK is a novel receptor kinase required for sensing of root-active CLE peptides in Arabidopsis” (Development (Cambridge, England), 2018).
Where no end group is shown, it is not given here. [ ]: non-standard residue; d: D form. Hyp = O=C(O)[C@@H]1C[C@@H](O)CN1

Tests used:
CLAVATA 1 (CLV1) = conditions: ref Brand et al., 2000; Clark et al., 1995; Fletcher et al., 1999; cited from earlier work
Source text: (§1) The endogenous CLAVATA3/EMBRYO SURROUNDING REGION (CLE) peptides of plants are secreted as propeptides and processed to yield bioactive 12-14 amino acid long ligands ([Cock and McCormick, 2001]; [Ito et al., 2006]; [Kondo et al., 2006]). The Arabidopsis thaliana genome contains 32 CLE genes, which encode 27 distinct CLE peptides ([Goad et al., 2016]; [Ito et al., 2006]; [Strabala et al., 2006]). Exogenous application of chemically synthesized CLE peptides at nanomolar concentrations frequently suppresses Arabidopsis root growth in tissue culture ([Depuydt et al., 2013]; [Fiers et al., 2005]; [ ...

[1] = tested on: PXY ectodomain with CLERK/At5g63710 ectodomains; experiment: Analytical size-exclusion chromatography, PXY + CLERK/At5g63710 ectodomains; format: binding, Arabidopsis thaliana; conditions: 50 µM peptide
Description: (§2) Isolation of recombinant proteins and analytical gel filtrations were carried out as described previously ([Hazak et al., 2017]) with small adjustments. The coding sequences for BAM1-ECD (amino acids 20-637), BAM3-ECD (30-651), PXY-ECD (30-647), NIK1-ECD (32-248), NIK2-ECD (33-248), NIK3-ECD (26-238), CLERK-ECD (28-236) and At5G63710-ECD (51-224) were amplified from Arabidopsis thaliana cDNA using PfuX7 polymerase. All ECD-coding sequences were then cloned into a modified pFAST-BAC1 vector (Geneva Biotech) by GIBSON cloning, resulting in the addition of the azurocidin signal peptide sequence to the 5′-end, and of a 2×-STREP-9×HIS tag to the 3′-end of the ECD sequences. These plasmids, after being confirmed by sequencing, were transformed into Escherichia coli DH10MultiBac (Geneva Biotech) followed by the extraction of the resulting bacmids. Transfection of the bacmids into Spodoptera frugiperda Sf9 cells with Profectin (AB Vector) was carried out to produce and amplify the respective virus. Recombinant secreted expression of the proteins was carried out by addition of virus to Trichoplusia ni Tnao38 cells to reach a viral multiplicity of 1 and incubation of the cells for 3 days. […] Concentrations of the pure proteins were assessed by measuring their absorbance at 280 nm (NanoDrop Lite; Thermo Scientific) and subsequent correction with their respective extinction coefficient. […]

[2] = tested on: PXY ectodomain with NIK1/2/3 ectodomains; experiment: Analytical size-exclusion chromatography, PXY + NIK1/2/3 ectodomains; format: binding, Arabidopsis thaliana; conditions: Fig. S3F; 50 µM peptide; pH 5.0
Description: as §2

SERKs with PXY = conditions: ref Hazak et al., 2017; Santiago et al., 2016; Zhang et al., 2016a,b; cited from earlier work
Source text: In numerous cases, ligand sensing by LRR-RKs requires interaction with co-receptor kinases ([Brandt and Hothorn, 2016]; [Hazak and Hardtke, 2016]; [Katsir et al., 2011]; [Li and Tax, 2013]). […] SERKs have also been implicated in PXY-mediated CLE41/44 signaling, although binding of PXY-CLE41/44 to ...

[3] = tested on: PHLOEM INTERCALATED WITH XYLEM (PXY); conditions: ref Etchells and Turner, 2010; Fisher and Turner, 2007; Hirakawa et al., 2008; Morita et al., 2016; cited from earlier work
Source text: as §1

[4] = molecular target: T1, BARELY ANY MERISTEM 1 (BAM1) ectodomain (Arabidopsis thaliana, UniProt O49545 20-637); experiment: ITC
T1 chain: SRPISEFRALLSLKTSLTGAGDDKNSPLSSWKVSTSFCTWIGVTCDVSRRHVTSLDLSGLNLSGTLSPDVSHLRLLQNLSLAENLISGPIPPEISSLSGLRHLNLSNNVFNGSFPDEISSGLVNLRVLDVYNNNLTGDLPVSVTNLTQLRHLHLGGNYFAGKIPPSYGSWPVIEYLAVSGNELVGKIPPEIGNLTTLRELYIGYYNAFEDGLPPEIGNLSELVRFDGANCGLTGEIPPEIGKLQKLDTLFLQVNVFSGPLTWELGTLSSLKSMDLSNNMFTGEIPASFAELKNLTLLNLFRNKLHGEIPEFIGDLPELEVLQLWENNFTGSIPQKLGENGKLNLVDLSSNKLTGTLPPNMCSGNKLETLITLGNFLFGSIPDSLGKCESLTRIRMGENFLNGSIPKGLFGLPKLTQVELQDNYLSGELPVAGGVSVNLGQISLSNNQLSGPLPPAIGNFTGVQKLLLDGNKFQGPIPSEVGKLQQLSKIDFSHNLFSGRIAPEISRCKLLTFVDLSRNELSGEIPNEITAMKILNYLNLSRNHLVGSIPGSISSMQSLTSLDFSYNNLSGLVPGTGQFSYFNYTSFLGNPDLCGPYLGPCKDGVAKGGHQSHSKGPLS

[5] = molecular target: T2, BARELY ANY MERISTEM 1 (BAM1) ectodomain (Arabidopsis thaliana, UniProt O49545 20-637); experiment: ITC; Nano ITC, 25°C, 20 mM citrate (pH 5.0), 150 mM NaCl; peptide in the syringe, ectodomain in the cell: 400 µM CLE26 or CLE45 into 30 µM CLERK-ECD; 80 µM CLE9 into 13.8 µM BAM1-ECD; conditions: both partners purified
T2 construct: BAM1, LRR receptor kinase of Arabidopsis thaliana, extracellular domain, amino acids 20-637; The azurocidin signal peptide was added at the N-terminus for secretion; also called BAM1-ECD
T2 sequence (looked up): T1 chain

For “CLV3: prototypical CLV3 peptide, directly bound by CLV1 to regulate stem cell homeostasis in shoot meristems (RTVPSGPDPLHHH; not fully specified; ends and bridges not checked; UniProt Q9XF04 70-82, looked up)”, the “Binding to CLV1” value (CLAVATA 1 (CLV1)) is listed as “directly binds”.

With “HEVPSGPNPISN [CLE41, identical CLE41 and CLE44 peptides, perceived by PXY]” the “Elution of PXY ectodomain with CLERK/At5g63710 ectodomains” value ([1]; Fig. S3C, pH 5.0) was “elute as monomers”, the “Peptide-dependent binding of CLERK ectodomain to PXY ectodomain” value ([1]; gel filtration, 20 mM citrate (pH 5.0), 150 mM NaCl) was “Neither did CLERK ectodomain bind to the BAM1 ectodomain or the PXY ectodomain” and the “Elution of PXY ectodomain with NIK1/2/3 ectodomains” value [2] was “elute as monomers”. The “Binding of PXY-CLE41/44 to SERKs” value (SERKs with PXY) was “comparatively weak” and the “Perception by PXY” value [3] was “perceives”.

B1: CLE9 peptide (peptide)
peptide: RLV[Hyp]SG[Hyp]NPLHN
notes: CLE9 peptide of Arabidopsis thaliana, 12 residues; source: synthetic peptide (PSL GmbH)
With B1 the Kd [4] was 0.0127 µM and the binding result [5] was “binds”.
